# US20230255205A1, “HERBICIDAL HETEROCYCLIC DERIVATIVES” (MoA Technology Limited, priority 2020, published 2023)
# Columns and labels:
# Type in all cases: in vivo
# [1] = test system: Echinochloa crus-galli (ECHCG); experiment: Pre-emergence herbicidal test, % visual injury; conditions: 336 h, rate 1000 g/ha, 14±1 days post-emergence in untreated plots
# Procedure: (§1) Pre-emergence testing was also performed using the same test species grown in a sandy loam soil mixture, Lolium multiflorum (LOLMU), Amaranthus retroflexus (AMARE), Echinochloa crus-galli (ECHCG), Veronica persica (VERPE).
# (§2) After sowing, at growth stage BBCH 00-07 (pre-emergence), the plants are sprayed with an aqueous spray solution derived from the formulation of the technical active ingredient in acetone/water (50:50) solution containing 0.5% Tween 20 (polyoxyethlyene sorbitan monolaureate, GAS RN 9005-64-5). The test compounds are applied at the required […] concentration of active ingredient in g/ha. The test plants are then grown in a glasshouse under controlled environmental conditions and watered regularly as required. After 14±1 days post-emergence in untreated plots (for the pre-emergence test), the test is evaluated by assessing the percentage damage caused to the plants in comparison with the untreated plots. The biological activities for pre-emergence testing are shown below (Table 4) in the following table as a % visual injury.
# [2] = test system: Lolium multiflorum (LOLMU); experiment: Pre-emergence herbicidal test, % visual injury; conditions: 336 h, rate 1000 g/ha, 14±1 days post-emergence in untreated plots
# Procedure: as §1, §2
# Veronica persica (VERPE) [3] = experiment: Pre-emergence herbicidal test, % visual injury; conditions: 336 h, rate 1000 g/ha, 14±1 days post-emergence in untreated plots
# Procedure: as §1, §2
# [4] = test system: Echinochloa crus-galli (ECHCG); experiment: Post-emergence herbicidal test, % visual injury; conditions: 336 h, 14±1 days post application; for pest or weed control at 500 g/ha: rate 500 g/ha; for pest or weed control at 1000 g/ha: rate 1000 g/ha
# Procedure: (§3) Seeds of a variety of test species are grown in a sandy loam soil mixture, Lolium multiflorum (LOLMU), Amaranthus retroflexus (AMARE), Echinochloa crus-galli (ECHCG), Veronica persica (VERPE).
# (§4) After sowing, at growth stage BBCH 12-14 (post-emergence), the plants are sprayed with an aqueous spray solution derived from the formulation of the technical active ingredient in acetone/water (50:50) solution containing 0.5% Tween 20 (polyoxyethlyene sorbitan monolaureate, CAS RN 9005-64-5). The test compounds are applied at the required concentration of active ingredient in g/ha. The test plants are then grown in a glasshouse under controlled environmental conditions and watered regularly as required. After 14±1 days post application (for post-emergence test), the test is evaluated by assessing the percentage damage caused to the plants in comparison with the untreated plots. The biological activities for post-emergence testing are shown below (Table 3) as a % visual injury.
# [5] = test system: Amaranthus retroflexus (AMARE); experiment: Post-emergence herbicidal test, % visual injury; conditions: 336 h, 14±1 days post application; for pest or weed control at 500 g/ha: rate 500 g/ha; for pest or weed control at 1000 g/ha: rate 1000 g/ha
# Procedure: as §3, §4
# [6] = test system: Lolium multiflorum (LOLMU); experiment: Post-emergence herbicidal test, % visual injury; conditions: 336 h, 14±1 days post application; for pest or weed control at 500 g/ha: rate 500 g/ha; for pest or weed control at 1000 g/ha: rate 1000 g/ha
# Procedure: as §3, §4
# Veronica persica (VERPE) [7] = experiment: Post-emergence herbicidal test, % visual injury; conditions: 336 h, 14±1 days post application; for pest or weed control at 500 g/ha: rate 500 g/ha; for pest or weed control at 1000 g/ha: rate 1000 g/ha
# Procedure: as §3, §4
# [8] = test system: Amaranthus retroflexus (AMARE); experiment: Pre-emergence herbicidal test, % visual injury; conditions: rate 1000 g/ha, 14±1 days post-emergence in untreated plots
# Procedure: as §1, §2
# [9] = test system: Echinochloa crus-galli (ECHCG); experiment: Comparative tests against non-claimed structural analogues, % visual injury; conditions: rate 125 g/ha
# Procedure: (§5) Selected compounds of the invention were also assessed in comparative tests (Table 5) against structural analogues not according to the invention (e.g. a compound containing an imidazole and one containing an oxazole, neither of which fall within the scope of the claimed invention). In each test, compounds were applied at a rate of 125 g/ha. Test 1 compared the efficacy of a compound of the invention (93) with a non-claimed structure which contains an unsubstituted triazole (105). […] Test 2 compared the efficacy of compound 93 with compound 104, which contains an imidazole and is therefore not according to the invention. […] Test 3 compared the efficacy of compound 43, a further compound according to the invention, with compound 103, which contains an oxazole not according to the invention.
# [10] = test system: Amaranthus retroflexus (AMARE); experiment: as above; conditions: rate 125 g/ha
# Procedure: as §5
# [11] = test system: Lolium multiflorum (LOLMU); experiment: as above; conditions: rate 125 g/ha
# Procedure: as §5
# Veronica persica (VERPE) [12] = experiment: as above; conditions: rate 125 g/ha
# Procedure: as §5
Structure (SMILES),pest or weed control at 1000 g/ha [1] [%],pest or weed control at 1000 g/ha [2] [%],pest or weed control at 1000 g/ha (Veronica persica (VERPE) [3]) [%],pest or weed control at 500 g/ha [4] [%],pest or weed control at 500 g/ha [5] [%],pest or weed control at 500 g/ha [6] [%],pest or weed control at 500 g/ha (Veronica persica (VERPE) [7]) [%],AMARE % visual Injury [8] [%],pest or weed control at 1000 g/ha [4] [%],pest or weed control at 1000 g/ha [5] [%],pest or weed control at 1000 g/ha [6] [%],pest or weed control at 1000 g/ha (Veronica persica (VERPE) [7]) [%],ECHCG % visual Injury [9] [%],AMARE % visual Injury [10] [%],LOLMU % visual Injury [11] [%],VERPE % visual Injury (Veronica persica (VERPE) [12]) [%]
Cn1nnnc1NC(=O)COc1ccc(F)cc1Cl [Compound 25],10,0,10,0,40,70,70,–,–,–,–,–,–,–,–,–
Cc1nnc(NC(=O)COc2ccc(F)cc2Cl)o1 [Compound 26],30,50,0,90,90,50,95,–,–,–,–,–,–,–,–,–
"O=C(CCCOc1ccc(Cl)cc1Cl)Nc1nnc(C(F)(F)F)[nH]1 [Compound 28, 4-(2,4-dichlorophenoxy)-N-[5-(trifluoromethyl)-4H-1,2,4-triazol-3-yl]butanamide]",0,40,0,10,70,0,60,–,–,–,–,–,–,–,–,–
Cc1cc(Cl)ccc1OCCCC(=O)Nc1nnc(C(F)(F)F)[nH]1 [Compound 29],0,20,0,0,60,60,80,–,–,–,–,–,–,–,–,–
"O=C(CCCOc1ccc(F)cc1Cl)Nc1nnc(C(F)(F)F)[nH]1 [Compound 30, 4-(2-chloro-4-fluorophenoxy)-N-[5-(trifluoromethyl)-4H-1,2,4-triazol-3-yl]butanamide]",0,60,0,30,80,70,60,–,–,–,–,–,–,–,–,–
CC(Oc1ccc(F)cc1Cl)C(=O)Nc1nnc(C(F)(F)F)[nH]1 (stereo not drawn) [Compound 32],0,0,5,–,–,–,–,–,–,–,–,–,–,–,–,–
Cc1cc(Cl)ccc1OCC(=O)Nc1nnc(C(F)(F)F)[nH]1 [Compound 35],80,0,0,–,–,–,–,20,30,80,20,60,–,–,–,–
O=C(COc1ccc(Cl)cc1Cl)Nc1nnc(C(F)(F)F)[nH]1 [Compound 36],40,0,0,–,–,–,–,40,30,99,40,98,–,–,–,–
O=C(COc1ccc(F)cc1Cl)Nc1nnc(C(F)(F)F)o1 [Compound 43],–,–,–,–,–,–,–,–,–,–,–,–,30,70,50,70
O=C(COc1ccc(F)cc1Cl)Nc1nnc(C(F)(F)F)[nH]1 [Compound 93],–,–,–,80,100,70,90,–,–,–,–,–,30,60,20,80
O=C(COc1ccc(F)cc1Cl)Nc1ncc(C(F)(F)F)o1 [Compound 103],–,–,–,–,–,–,–,–,–,–,–,–,30,50,20,50
O=C(COc1ccc(F)cc1Cl)Nc1ncc(C(F)(F)F)[nH]1 [Compound 104],–,–,–,–,–,–,–,–,–,–,–,–,30,40,10,70
O=C(COc1ccc(F)cc1Cl)Nc1nnc[nH]1 [Compound 105],–,–,–,–,–,–,–,–,–,–,–,–,20,50,0,40
